Four molecules from ChEMBL document CHEMBL3044911, “Effect of distribution and concentration of topically applied neonicotinoid insecticides in buffalograss, Buchloe dactyloides, leaf tissues on the differential mortality of Blissus occiduus under field conditions” (Pest Manag Sci, 2013) can be followed below.

Activity calls are given as the source filed them. The calls are words filed in the database; no cut-off is given here.

Data set [1] deals with Lygaeidae. As to the kind of experiment: Insecticidal activity against second generation Blissus occiduus in buffalograss under field condition assessed as reduction in number at 9.6 kg/ha measured 3 days after treatment. It is filed as functional, organism-based.
For data set [2], the system named is Lygaeidae. As to the kind of experiment: Insecticidal activity against second generation Blissus occiduus in buffalograss under field condition assessed as reduction in number at 9.6 kg/ha measured 55 days after treatment. The format is functional, organism-based.
The subject of data set [3] is Lygaeidae. As to the kind of experiment: Insecticidal activity against second generation Blissus occiduus in buffalograss under field condition assessed as reduction in number at 9.6 kg/ha measured 7 days after treatment. It is filed as functional, organism-based.
The subject of data set [4] is Lygaeidae. As to the kind of experiment: Insecticidal activity against first generation Blissus occiduus in buffalograss under field condition assessed as reduction in number at 9.6 kg/ha measured 106 days after treatment. The format is functional, organism-based.
Data set [5] has as its system Lygaeidae. As to the kind of experiment: Insecticidal activity against first generation Blissus occiduus in buffalograss under field condition assessed as reduction in number at 9.6 kg/ha measured 3 days after treatment. The format is functional, organism-based.
Data set [6] relates to Lygaeidae. As to the kind of experiment: Insecticidal activity against first generation Blissus occiduus in buffalograss under field condition assessed as reduction in number at 9.6 kg/ha measured 8 days after treatment. The format is functional, organism-based.
Data set [7] deals with Lygaeidae. As to the kind of experiment: Insecticidal activity against second generation Blissus occiduus in buffalograss under field condition assessed as reduction in number at 9.6 kg/ha measured 28 days after treatment. The format is functional, organism-based.
Data set [8] concerns Lygaeidae. As to the kind of experiment: Insecticidal activity against second generation Blissus occiduus in buffalograss under field condition assessed as reduction in number at 89.7 kg/ha measured 28 days after treatment. It is filed as functional, organism-based.
The subject of data set [9] is Urochloa mutica. As to the kind of experiment: Drug level in […] (buffalo grass) measured per gram of fresh weight at 19.1 kg/ha measured 3 days after treatment. It is filed as ADME, organism-based. The settings on record: in vivo, 72 h.
Data set [10] has as its system Lygaeidae. As to the kind of experiment: Insecticidal activity against second generation Blissus occiduus in buffalograss under field condition assessed as reduction in number at 89.7 kg/ha measured 3 days after treatment. The format is functional, organism-based.
Data set [11] has as its system Lygaeidae. As to the kind of experiment: Insecticidal activity against first generation Blissus occiduus in buffalograss under field condition assessed as reduction in number at 89.7 kg/ha measured 8 days after treatment. It is filed as functional, organism-based.
The subject of data set [12] is Lygaeidae. As to the kind of experiment: Insecticidal activity against first generation Blissus occiduus in buffalograss under field condition assessed as reduction in number at 89.7 kg/ha measured 106 days after treatment. It is filed as functional, organism-based.
The subject of data set [13] is Urochloa mutica. As to the kind of experiment: Drug level in […] (buffalo grass) measured per gram of fresh weight at 19.1 kg/ha measured 14 days after treatment. The format is ADME, organism-based. The settings on record: in vivo, 336 h.
Data set [14] deals with Lygaeidae. As to the kind of experiment: Insecticidal activity against first generation Blissus occiduus in buffalograss under field condition assessed as reduction in number at 89.7 kg/ha measured 3 days after treatment. The format is functional, organism-based.
Data set [15] relates to Lygaeidae. As to the kind of experiment: Insecticidal activity against second generation Blissus occiduus in buffalograss under field condition assessed as reduction in number at 89.7 kg/ha measured 7 days after treatment. The format is functional, organism-based.
Data set [16] relates to Lygaeidae. As to the kind of experiment: Insecticidal activity against second generation Blissus occiduus in buffalograss under field condition assessed as reduction in number at 89.7 kg/ha measured 55 days after treatment. The format is functional, organism-based.
For data set [17], the system named is Urochloa mutica. As to the kind of experiment: Drug level in […] (buffalo grass) measured per gram of fresh weight at 19.1 kg/ha measured 28 days after treatment. The format is ADME, organism-based. Particulars: in vivo, 672 h.
Data set [18] deals with Urochloa mutica. As to the kind of experiment: Drug level in […] (buffalo grass) measured per gram of fresh weight at 19.1 kg/ha measured 7 days after treatment. The format is ADME, organism-based. Particulars: in vivo, 168 h.
Data set [19] deals with Urochloa mutica. As to the kind of experiment: Drug level in […] (buffalo grass) measured per gram of fresh weight at 89.7 kg/ha measured 3 days after treatment. It is filed as ADME, organism-based. Particulars: in vivo, 72 h.
The subject of data set [20] is Urochloa mutica. As to the kind of experiment: Drug level in […] (buffalo grass) measured per gram of fresh weight at 89.7 kg/ha measured 28 days after treatment. It is filed as ADME, organism-based. The settings on record: in vivo, 672 h.
Data set [21] deals with Urochloa mutica. As to the kind of experiment: Drug level in […] (buffalo grass) measured per gram of fresh weight at 89.7 kg/ha measured 7 days after treatment. It is filed as ADME, organism-based. The settings on record: in vivo, 168 h.
For data set [22], the system named is Urochloa mutica. As to the kind of experiment: Drug level in […] (buffalo grass) measured per gram of fresh weight at 89.7 kg/ha measured 14 days after treatment. The format is ADME, organism-based. The settings on record: in vivo, 336 h.
For data set [23], the system named is Lygaeidae. As to the kind of experiment: Insecticidal activity against first generation Blissus occiduus in buffalograss under field condition assessed as reduction in number at 19.1 kg/ha measured 3 days after treatment. It is filed as functional, organism-based.
In data set [24] the test system is Lygaeidae. As to the kind of experiment: Insecticidal activity against second generation Blissus occiduus in buffalograss under field condition assessed as reduction in number at 19.1 kg/ha measured 55 days after treatment. The format is functional, organism-based.
Data set [25] deals with Lygaeidae. As to the kind of experiment: Insecticidal activity against first generation Blissus occiduus in buffalograss under field condition assessed as reduction in number at 19.1 kg/ha measured 106 days after treatment. The format is functional, organism-based.
Data set [26] relates to Urochloa mutica. As to the kind of experiment: Drug level in […] (buffalo grass) measured per gram of fresh weight at 9.6 kg/ha measured 7 days after treatment. It is filed as ADME, organism-based. Particulars: in vivo, other, 168 h.
Data set [27] deals with Lygaeidae. As to the kind of experiment: Insecticidal activity against second generation Blissus occiduus in buffalograss under field condition assessed as reduction in number at 19.1 kg/ha measured 7 days after treatment. It is filed as functional, organism-based.
The subject of data set [28] is Lygaeidae. As to the kind of experiment: Insecticidal activity against second generation Blissus occiduus in buffalograss under field condition assessed as reduction in number at 19.1 kg/ha measured 28 days after treatment. The format is functional, organism-based.
Data set [29] has as its system Urochloa mutica. As to the kind of experiment: Drug level in […] (buffalo grass) measured per gram of fresh weight at 9.6 kg/ha measured 3 days after treatment. It is filed as ADME, organism-based. Particulars: in vivo, 72 h.
In data set [30] the test system is Urochloa mutica. As to the kind of experiment: Drug level in […] (buffalo grass) measured per gram of fresh weight at 9.6 kg/ha measured 14 days after treatment. The format is ADME, organism-based. The settings on record: in vivo, 336 h.
For data set [31], the system named is Lygaeidae. As to the kind of experiment: Insecticidal activity against first generation Blissus occiduus in buffalograss under field condition assessed as reduction in number at 19.1 kg/ha measured 8 days after treatment. The format is functional, organism-based.
In data set [32] the test system is Lygaeidae. As to the kind of experiment: Insecticidal activity against second generation Blissus occiduus in buffalograss under field condition assessed as reduction in number at 19.1 kg/ha measured 3 days after treatment. The format is functional, organism-based.

For the molecule `O=[N+]([O-])/N=C1\NCCN1Cc1ccc(Cl)nc1`, the outcome in the data set on Lygaeidae [1], with Lygaeidae [4] and in the data set on Lygaeidae [7] was inactive. Besides, the outcome in the data set on Lygaeidae [2], with Lygaeidae [3], with Lygaeidae [5] and in the data set on Lygaeidae [6] was Active.

With `CN/C(=N\[N+](=O)[O-])NCc1cnc(Cl)s1` [CLOTHIANIDINE], the outcome with Lygaeidae [8], with Lygaeidae [10], with Lygaeidae [11], in the data set on Lygaeidae [12], in the data set with Lygaeidae [14] and in the data set on Lygaeidae [15] was Active. In addition, in the data set with Lygaeidae [16], the result was Active. The drug content with Urochloa mutica [9] turned out to be 6.48 µg/g; in the data set on Urochloa mutica [13], 0.66 µg/g; in the data set on Urochloa mutica [17] it was 0.19 µg/g. The same molecule returned a Drug uptake in the data set with Urochloa mutica [18] of 1.56 µg/g.

Take `O=[N+]([O-])NC1=NCCN1Cc1ccc(Cl)nc1` [IMIDACLOPRID]: the drug content in the data set with Urochloa mutica [19] came to 14.2 µg/g; in the data set on Urochloa mutica [20], 0.2 µg/g; in the data set with Urochloa mutica [21], 3.25 µg/g; with Urochloa mutica [22], 0.77 µg/g.

Take `CN1COCN(Cc2cnc(Cl)s2)/C1=N\[N+](=O)[O-]` [THIAMETHOXAM]: the result in the data set on Lygaeidae [23], with Lygaeidae [24], in the data set with Lygaeidae [27], in the data set with Lygaeidae [28] and in the data set with Lygaeidae [31] was Active. Further, the outcome in the data set on Lygaeidae [25] and with Lygaeidae [32] was inactive. Besides, the drug content came to 0.6 µg/g in the data set on Urochloa mutica [26], 6.2 µg/g in the data set on Urochloa mutica [29] and 0.16 µg/g in the data set on Urochloa mutica [30].
